Measurements from ChEMBL document CHEMBL1122928, “Stereostructure-activity relationship of opioid agonist and antagonist bivalent ligands. Evidence for bridging between vicinal opioid receptors” (J Med Chem, 1985).

Assays:
[1] = target: T1, Opioid receptors; mu/kappa/delta (Homo sapiens) (UniProt P41145+P41143+P35372); assay: The relative potency was evaluated with respect to morphine.; details: Cavia porcellus
[2] = target: T1, Opioid receptors; mu/kappa/delta (Homo sapiens); assay: In vitro agonist activity towards opioid receptor on the electrically stimulated Guinea pig ileal longitudinal muscle (GPI); morphine IC50/ agonist IC50 in the same tissue; type: functional; details: Cavia porcellus; target entry is the homologue from another species

T1 sequence (P35372 whole entry, looked up): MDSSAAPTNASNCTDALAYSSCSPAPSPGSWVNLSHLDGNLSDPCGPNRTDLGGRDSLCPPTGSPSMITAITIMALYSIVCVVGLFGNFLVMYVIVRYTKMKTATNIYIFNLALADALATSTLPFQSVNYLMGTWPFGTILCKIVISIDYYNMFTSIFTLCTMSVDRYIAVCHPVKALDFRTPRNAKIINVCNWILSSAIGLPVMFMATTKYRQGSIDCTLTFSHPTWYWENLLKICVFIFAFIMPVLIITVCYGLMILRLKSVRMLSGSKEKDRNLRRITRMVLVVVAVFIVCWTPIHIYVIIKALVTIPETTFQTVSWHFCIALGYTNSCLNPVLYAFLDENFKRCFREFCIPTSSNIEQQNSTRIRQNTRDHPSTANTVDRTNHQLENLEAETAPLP
T1 sequence (P41143 whole entry, looked up): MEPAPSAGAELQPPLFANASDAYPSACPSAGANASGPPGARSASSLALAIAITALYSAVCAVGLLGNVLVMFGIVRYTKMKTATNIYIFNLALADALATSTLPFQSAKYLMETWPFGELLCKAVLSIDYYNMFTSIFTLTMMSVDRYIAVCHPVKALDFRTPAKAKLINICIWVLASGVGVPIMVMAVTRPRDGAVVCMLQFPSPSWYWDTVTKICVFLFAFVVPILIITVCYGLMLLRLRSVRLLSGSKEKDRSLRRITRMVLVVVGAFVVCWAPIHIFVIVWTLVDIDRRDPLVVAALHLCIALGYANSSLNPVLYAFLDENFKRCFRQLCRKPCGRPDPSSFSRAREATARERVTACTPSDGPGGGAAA
T1 sequence (P41145 whole entry, looked up): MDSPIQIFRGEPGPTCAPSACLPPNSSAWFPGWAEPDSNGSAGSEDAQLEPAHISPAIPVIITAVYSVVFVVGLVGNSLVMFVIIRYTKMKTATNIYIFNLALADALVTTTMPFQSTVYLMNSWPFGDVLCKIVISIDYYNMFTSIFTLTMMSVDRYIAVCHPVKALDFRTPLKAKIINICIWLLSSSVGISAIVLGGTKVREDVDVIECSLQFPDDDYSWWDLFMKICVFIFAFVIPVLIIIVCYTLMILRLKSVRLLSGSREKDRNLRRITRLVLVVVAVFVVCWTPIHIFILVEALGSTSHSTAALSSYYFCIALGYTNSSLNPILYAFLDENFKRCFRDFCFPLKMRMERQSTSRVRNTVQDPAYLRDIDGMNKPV

Compound | Relative potency [1] | Potency ratio [2]
O=C(CCC(=O)NCC(=O)NCC(=O)NC1CCC2(O)[C@H]3Cc4ccc(O)c5c4C2(CCN3CC2CC2)C1O5)NCC(=O)NCC(=O)NC1CCC2(O)[C@H]3Cc4ccc(O)c5c4C2(CCN3CC2CC2)C1O5 (stereo partly drawn) | 1.4 | 7.8
CC(=O)NCC(=O)NCC(=O)NC1CCC2(O)[C@H]3Cc4ccc(O)c5c4C2(CCN3CC2CC2)C1O5 (stereo partly drawn) | 1 | 5.4
O=C(CCC(=O)NCC(=O)NCC(=O)NC1CCC2(O)[C@H]3Cc4ccc(O)c5c4C2(CCN3CC2CC2)C1O5)NCC(=O)NCC(=O)NC1CCC2(O)[C@@H]3Cc4ccc(O)c5c4C2(CCN3CC2CC2)C1O5 (single isomer, unassigned; (-)) | 33.5 | 181
CN1CCC23c4c5ccc(O)c4OC2C(NC(=O)CNC(=O)CNC(=O)CCC(=O)NCC(=O)NCC(=O)NC2CCC4(O)[C@H]6Cc7ccc(O)c8c7C4(CCN6C)C2O8)CCC3(O)[C@H]1C5 (stereo partly drawn) | – | 7.6
CC(=O)NCC(=O)NCC(=O)NC1CCC2(O)[C@H]3Cc4ccc(O)c5c4C2(CCN3C)C1O5 (stereo partly drawn) | – | 1.9
